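Growth conditions: 96-well plates. Treatment: test compound, 48 hours, 5 concentrations. Analysis: linear interpolation between bracketing concentrations; unreached endpoints set to highest concentration. TGI marks complete inhibition of growth.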
Assays:
Assay in all cases: NCI anticancer screen, dose series, 48 h
786-0 renal = tested on: 786-0 renal
A498 renal = tested on: A498 renal
A549 NSCLC = tested on: A549 NSCLC
ACHN renal = tested on: ACHN renal
CAKI-1 renal = tested on: CAKI-1 renal
CCRF-CEM leukemia = tested on: CCRF-CEM leukemia
COLO 205 colon = tested on: COLO 205 colon
DU-145 prostate = tested on: DU-145 prostate
EKVX NSCLC = tested on: EKVX NSCLC
HCC-2998 colon = tested on: HCC-2998 colon
HCT-116 colon = tested on: HCT-116 colon
HCT-15 colon = tested on: HCT-15 colon
HL-60(TB) leukemia = tested on: HL-60(TB) leukemia
HOP-62 NSCLC = tested on: HOP-62 NSCLC
HOP-92 NSCLC = tested on: HOP-92 NSCLC
HS 578T breast = tested on: HS 578T breast
HT29 colon = tested on: HT29 colon
IGROV1 ovarian = tested on: IGROV1 ovarian
K-562 leukemia = tested on: K-562 leukemia
KM12 colon = tested on: KM12 colon
LOX IMVI melanoma = tested on: LOX IMVI melanoma
MALME-3M melanoma = tested on: MALME-3M melanoma
MDA-MB-231 breast = tested on: MDA-MB-231 breast
MDA-MB-435 = tested on: MDA-MB-435
MDA-N = tested on: MDA-N
MOLT-4 leukemia = tested on: MOLT-4 leukemia
NCI-H226 lung = tested on: NCI-H226 lung
NCI-H23 lung = tested on: NCI-H23 lung
NCI-H460 lung = tested on: NCI-H460 lung
NCI-H522 lung = tested on: NCI-H522 lung
NCI/ADR-RES ovarian = tested on: NCI/ADR-RES ovarian
OVCAR-4 ovarian = tested on: OVCAR-4 ovarian
OVCAR-5 ovarian = tested on: OVCAR-5 ovarian
OVCAR-8 ovarian = tested on: OVCAR-8 ovarian
PC-3 prostate = tested on: PC-3 prostate
RPMI-8226 leukemia = tested on: RPMI-8226 leukemia
RXF 393 renal = tested on: RXF 393 renal
SF-268 CNS = tested on: SF-268 CNS
SF-295 CNS = tested on: SF-295 CNS
SF-539 CNS = tested on: SF-539 CNS
SK-MEL-2 melanoma = tested on: SK-MEL-2 melanoma
SK-MEL-28 melanoma = tested on: SK-MEL-28 melanoma
SK-MEL-5 melanoma = tested on: SK-MEL-5 melanoma
SK-OV-3 ovarian = tested on: SK-OV-3 ovarian
SN12C renal = tested on: SN12C renal
SNB-19 CNS = tested on: SNB-19 CNS
SNB-75 CNS = tested on: SNB-75 CNS
SR leukemia = tested on: SR leukemia
SW-620 colon = tested on: SW-620 colon
T-47D breast = tested on: T-47D breast
TK-10 renal = tested on: TK-10 renal
U251 CNS = tested on: U251 CNS
UACC-257 melanoma = tested on: UACC-257 melanoma
UACC-62 melanoma = tested on: UACC-62 melanoma
UO-31 renal = tested on: UO-31 renal
M14 melanoma = tested on: M14 melanoma
OVCAR-3 ovarian = tested on: OVCAR-3 ovarian

`Cc1ccc(N=c2oc3c(ccc4ccccc43)nc2Nc2ccc(C)cc2)cc1` gave a TGI (786-0 renal) greater than 100 µM, a TGI (A498 renal) greater than 100 µM and a TGI (A549 NSCLC) greater than 100 µM. For the same molecule, the TGI (ACHN renal) was greater than 100 µM, the TGI (CAKI-1 renal) was greater than 100 µM and the TGI (CCRF-CEM leukemia) was greater than 100 µM. The TGI (COLO 205 colon) was greater than 100 µM, the TGI (DU-145 prostate) was greater than 100 µM and the TGI (EKVX NSCLC) was greater than 100 µM. For the same molecule, the TGI (HCC-2998 colon) was greater than 100 µM, the TGI (HCT-116 colon) was greater than 100 µM and the TGI (HCT-15 colon) was greater than 100 µM. For the same molecule, the TGI (HL-60(TB) leukemia) was greater than 100 µM, the TGI (HOP-62 NSCLC) was greater than 100 µM and the TGI (HOP-92 NSCLC) was greater than 100 µM. It also gave a TGI (HS 578T breast) greater than 100 µM, a TGI (HT29 colon) greater than 100 µM and a TGI (IGROV1 ovarian) greater than 100 µM. The TGI (K-562 leukemia) was greater than 100 µM, the TGI (KM12 colon) was greater than 100 µM and the TGI (LOX IMVI melanoma) was greater than 100 µM. It also gave a TGI (MALME-3M melanoma) greater than 100 µM, a TGI (MDA-MB-231 breast) greater than 100 µM and a TGI (MDA-MB-435) greater than 100 µM. For the same molecule, the TGI (MDA-N) was greater than 100 µM, the TGI (MOLT-4 leukemia) was greater than 100 µM and the TGI (NCI-H226 lung) was greater than 100 µM. For the same molecule, the TGI (NCI-H23 lung) was greater than 100 µM, the TGI (NCI-H460 lung) was greater than 100 µM and the TGI (NCI-H522 lung) was greater than 100 µM. For the same molecule, the TGI (NCI/ADR-RES ovarian) was greater than 100 µM, the TGI (OVCAR-4 ovarian) was greater than 100 µM and the TGI (OVCAR-5 ovarian) was greater than 100 µM. The TGI (OVCAR-8 ovarian) was greater than 100 µM, the TGI (PC-3 prostate) was greater than 100 µM and the TGI (RPMI-8226 leukemia) was greater than 100 µM. It also gave a TGI (RXF 393 renal) greater than 100 µM, a TGI (SF-268 CNS) greater than 100 µM and a TGI (SF-295 CNS) greater than 100 µM. The TGI (SF-539 CNS) was greater than 100 µM, the TGI (SK-MEL-2 melanoma) was greater than 100 µM and the TGI (SK-MEL-28 melanoma) was greater than 100 µM. For the same molecule, the TGI (SK-MEL-5 melanoma) was greater than 100 µM, the TGI (SK-OV-3 ovarian) was greater than 100 µM and the TGI (SN12C renal) was greater than 100 µM. The TGI (SNB-19 CNS) was greater than 100 µM, the TGI (SNB-75 CNS) was greater than 100 µM and the TGI (SR leukemia) was greater than 100 µM. For the same molecule, the TGI (SW-620 colon) was greater than 100 µM, the TGI (T-47D breast) was greater than 100 µM and the TGI (TK-10 renal) was greater than 100 µM. The TGI (U251 CNS) was greater than 100 µM, the TGI (UACC-257 melanoma) was greater than 100 µM and the TGI (UACC-62 melanoma) was greater than 100 µM. The TGI (UO-31 renal) was greater than 100 µM.

`Cc1cc(CC(O)(C(F)(F)F)C(F)(F)F)cc(CC(O)(C(F)(F)F)C(F)(F)F)n1` gave a TGI (786-0 renal) of 6.66 µM, a TGI (A498 renal) of 7.87 µM and a TGI (A549 NSCLC) of 10.9 µM. It also gave a TGI (ACHN renal) of 8.29 µM, a TGI (CAKI-1 renal) greater than 100 µM and a TGI (CCRF-CEM leukemia) of 12 µM. The TGI (COLO 205 colon) was 3.33 µM, the TGI (DU-145 prostate) was 7.94 µM and the TGI (EKVX NSCLC) was 10.8 µM. For the same molecule, the TGI (HCC-2998 colon) was 14.2 µM, the TGI (HCT-116 colon) was 6.09 µM and the TGI (HCT-15 colon) was 12.6 µM. The TGI (HL-60(TB) leukemia) was 7.85 µM, the TGI (HOP-62 NSCLC) was 8.79 µM and the TGI (HOP-92 NSCLC) was 5.48 µM. The TGI (HS 578T breast) was 8.23 µM, the TGI (HT29 colon) was 7.79 µM and the TGI (IGROV1 ovarian) was 11.2 µM. For the same molecule, the TGI (K-562 leukemia) was greater than 100 µM, the TGI (KM12 colon) was 5.13 µM and the TGI (LOX IMVI melanoma) was 5.79 µM. The TGI (M14 melanoma) was 12 µM, the TGI (MALME-3M melanoma) was 4.3 µM and the TGI (MDA-MB-231 breast) was 6.84 µM. For the same molecule, the TGI (MDA-MB-435) was 8.26 µM, the TGI (MDA-N) was 13 µM and the TGI (MOLT-4 leukemia) was 13.2 µM. The TGI (NCI-H226 lung) was 8.13 µM, the TGI (NCI-H23 lung) was 5.31 µM and the TGI (NCI-H460 lung) was 4.2 µM. It also gave a TGI (NCI-H522 lung) of 6.35 µM, a TGI (NCI/ADR-RES ovarian) of 5.95 µM and a TGI (OVCAR-3 ovarian) of 2.76 µM. For the same molecule, the TGI (OVCAR-4 ovarian) was 12.6 µM, the TGI (OVCAR-5 ovarian) was 19.2 µM and the TGI (OVCAR-8 ovarian) was 12.4 µM. For the same molecule, the TGI (PC-3 prostate) was 10.3 µM, the TGI (RPMI-8226 leukemia) was 5.96 µM and the TGI (RXF 393 renal) was 14.9 µM. For the same molecule, the TGI (SF-268 CNS) was 10.1 µM, the TGI (SF-295 CNS) was 9.94 µM and the TGI (SF-539 CNS) was 8.71 µM. It also gave a TGI (SK-MEL-2 melanoma) of 5.45 µM, a TGI (SK-MEL-28 melanoma) of 9.54 µM and a TGI (SK-MEL-5 melanoma) of 3.34 µM. The TGI (SN12C renal) was 9.25 µM, the TGI (SNB-19 CNS) was greater than 100 µM and the TGI (SNB-75 CNS) was 6.58 µM. For the same molecule, the TGI (SR leukemia) was 15.1 µM, the TGI (SW-620 colon) was greater than 100 µM and the TGI (T-47D breast) was 7.3 µM. It also gave a TGI (TK-10 renal) of 13.6 µM, a TGI (U251 CNS) of 11.9 µM and a TGI (UACC-257 melanoma) of 8.65 µM. The TGI (UACC-62 melanoma) was 12.5 µM and the TGI (UO-31 renal) was 4.02 µM.

From PubChem BioAssay (NCI)
